Results reported in patent US7309708B2, “Hepatitis C virus inhibitors” (priority 2003, dated 2007).

Molecular target: T1, HCV NS3/4A protease complex (BMS strain) (UniProt P27958)
T1 construct: for H77 and J4L6S; fused on or other part: Probably a three-lysine solubilising tail at the C-terminus of NS4A and a His tag from pET21b (Ni-NTA purification); These are printed for the H77 and J4L6S constructs and only inferred for BMS
Test: Recombinant HCV NS3/4A protease complex FRET peptide assay (BMS strain)
Assay type: biochemical, Hepatitis C virus (genotype 1a
Conditions: read-out: IC50 (uuM); NS3/4A BMS strain; activity range class
From the text: Serum from an HCV-infected patient was obtained from Dr. T. Wright, San Francisco Hospital. An engineered full-length cDNA (compliment deoxyribonucleic acid) template of the HCV genome (BMS strain) was constructed from DNA fragments obtained by reverse transcription-PCR (RT-PCR) of serum RNA (ribonucleic acid) and using primers selected on the basis of homology between other genotype 1a strains.
The H77 and J4L6S strains were used for production of recombinant NS3/4A protease complexes. […] Briefly, a three-lysine solubilizing tail was added at the 3′-end of the NS4A coding region. […] Briefly, the NS3/4A protease complex expression was induced with 0.5 millimolar (mM) Isopropyl β-D-1-thiogalactopyranoside (IPTG) for 22 hours (h) at 20° C. […] The cells were resuspended in lysis buffer (10 mL/g) consisting of 25 mM N-(2-Hydroxyethyl)Piperazine-N′-(2-Ethane Sulfonic acid) (HEPES), pH 7.5, 20% glycerol, 500 mM Sodium Chloride (NaCl), 0.5% Triton X-100, 1 microgram/milliliter (“μg/mL”) lysozyme, 5 mM Magnesium Chloride (MgCl2), 1 gg/ml DnaseI, 5 mM β-Mercaptoethanol (βME), Protease inhibitor—Ethylenediamine Tetraacetic acid (EDTA) free (Roche), homogenized and incubated for 20 minutes (min) at 4° C. The homogenate was sonicated and clarified by ultra-centrifugation at 235000 g for 1 h at 4° C. Imidazole was added to the supernatant to a final concentration of 15 mM and the pH adjusted to 8.0. The crude protein extract was loaded on a Nickel-Nitrilotriacetic acid (Ni-NTA) column pre-equilibrated with buffer B (25 mM HEPES, pH 8.0, 20% glycerol, 500 mM NaCl, 0.5% Triton X-100, 15 mM imidazole, 5 mM βME). The sample was loaded at a flow rate of 1 mL/min. The column was washed with 15 column volumes of buffer C (same as buffer B except with 0.2% Triton X-100). The protein was eluted with 5 column volumes of buffer D (same as buffer C except with 200 mM Imidazole).
NS3/4A protease complex-containing fractions were pooled and loaded on a desalting column Superdex-S200 pre-equilibrated with buffer D (25 mM HEPES, pH 7.5, 20% glycerol, 300 mM NaCl, 0.2% Triton X-100, 10 mM βME). Sample was loaded at a flow rate of 1 mL/min. NS3/4A protease complex-containing fractions were pooled and concentrated to approximately 0.5 mg/ml.
The enzyme was stored at −80° C., thawed on ice and diluted prior to use in assay buffer. […] The sequence of this peptide is loosely based on the NS4A/NS4B natural cleavage site for the HCV NS3 protease except there is an ester linkage rather than an amide bond at the cleavage site. The peptide substrate was incubated with one of the three recombinant NS3/4A protease complexes, in the absence or presence of a compound of the present invention, and the formation of fluorescent reaction product was followed in real time using a Cytofluor Series 4000.
Assay buffer: 50 mM HEPES, pH 7.5; 0.15 M NaCl; 0.1% Triton; 15% Glycerol; 10 mM βME. Substrate: 2 μM final concentration (from a 2 mM stock solution in DMSO stored at −20° C.). HCV NS3/4A protease type 1a (1b), 2-3 nM final concentration (from a 5 μM stock solution in 25 mM HEPES, pH 7.5, 20% glycerol, 300 mM NaCl, 0.2% Triton-X100, 10 mM βME).
The assay was performed in a 96-well polystyrene black plate from Falcon. Each well contained 25 μl NS3/4A protease complex in assay buffer, 50 μl of a compound of the present invention in 10% DMSO/assay buffer and 25 μl substrate in assay buffer. A control (no compound) was also prepared on the same assay plate.

T1 sequence (P27958 1027-1657, one chain of several): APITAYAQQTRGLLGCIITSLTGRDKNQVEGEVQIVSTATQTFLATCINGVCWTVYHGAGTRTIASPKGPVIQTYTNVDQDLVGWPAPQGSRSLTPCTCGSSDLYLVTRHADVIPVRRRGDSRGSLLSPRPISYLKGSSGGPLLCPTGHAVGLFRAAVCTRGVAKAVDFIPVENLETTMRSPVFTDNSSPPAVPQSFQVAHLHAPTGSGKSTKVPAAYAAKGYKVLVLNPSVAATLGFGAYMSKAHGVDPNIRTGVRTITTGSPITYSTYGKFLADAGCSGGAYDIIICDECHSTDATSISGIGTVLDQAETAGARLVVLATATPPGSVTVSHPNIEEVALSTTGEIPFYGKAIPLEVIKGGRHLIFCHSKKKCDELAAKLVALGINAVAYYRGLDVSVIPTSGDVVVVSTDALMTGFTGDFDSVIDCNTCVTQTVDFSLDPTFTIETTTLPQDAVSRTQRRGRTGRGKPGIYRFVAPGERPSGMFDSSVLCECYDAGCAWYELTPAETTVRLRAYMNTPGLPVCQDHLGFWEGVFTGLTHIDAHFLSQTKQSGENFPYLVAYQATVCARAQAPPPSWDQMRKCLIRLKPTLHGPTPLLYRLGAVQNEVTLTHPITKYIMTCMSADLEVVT

`C=C[C@@H]1C[C@]1(NC(=O)[C@@H]1C[C@@H](Oc2nccc3cc(OC)ccc23)CN1C(=O)[C@@H](NC(=O)OC(C)(C)C)C(C)(C)C)C(=O)NS(=O)(=O)c1cc(Cl)c(Cl)s1` [Compound 1001] and `C=C[C@@H]1C[C@]1(NC(=O)[C@@H]1C[C@@H](Oc2nccc3cc(OC)ccc23)CN1C(=O)[C@@H](NC(=O)OC(C)(C)C)C(C)(C)C)C(=O)NS(=O)(=O)c1cccs1` [Compound 1006] cannot be ordered by IC50: under 100 nM for the first, under 100 nM for the second.

First: C=C[C@@H]1C[C@]1(NC(=O)[C@@H]1C[C@@H](Oc2nccc3cc(OC)ccc23)CN1C(=O)[C@@H](NC(=O)OC(C)(C)C)C(C)(C)C)C(=O)NS(=O)(=O)c1sc(C)nc1C [Compound 1003]
Second: C=C[C@@H]1C[C@]1(NC(=O)[C@@H]1C[C@@H](Oc2nccc3cc(OC)ccc23)CN1C(=O)[C@@H](NC(=O)OC(C)(C)C)C(C)(C)C)C(=O)NS(=O)(=O)c1c(C)noc1C [Compound 1012]
The IC50 of the first is lower: 100 to 1000 nM for the first, 1000 to 10000 nM for the second. The first is the more potent here.

First: C=C[C@@H]1C[C@]1(NC(=O)[C@@H]1C[C@@H](Oc2nccc3cc(OC)ccc23)CN1C(=O)[C@@H](NC(=O)OC(C)(C)C)C(C)(C)C)C(=O)NS(=O)(=O)c1c(C)nn(C)c1Cl [Compound 1004]
Second: C=C[C@@H]1C[C@]1(NC(=O)[C@@H]1C[C@@H](Oc2nccc3cc(OC)ccc23)CN1C(=O)[C@@H](NC(=O)OC(C)(C)C)C(C)(C)C)C(=O)NS(=O)(=O)c1cn(C)cn1 [Compound 1005]
The IC50 of the first is lower: 100 to 1000 nM for the first, 1000 to 10000 nM for the second.

`C=C[C@@H]1C[C@]1(NC(=O)[C@@H]1C[C@@H](Oc2nccc3cc(OC)ccc23)CN1C(=O)[C@@H](NC(=O)OC(C)(C)C)C(C)(C)C)C(=O)NS(=O)(=O)c1ccccc1` [Compound 1007] and `C=C[C@@H]1C[C@]1(NC(=O)[C@@H]1C[C@@H](Oc2nccc3cc(OC)ccc23)CN1C(=O)[C@@H](NC(=O)OC(C)(C)C)C(C)(C)C)C(=O)NS(=O)(=O)c1nnc(NC(C)=O)s1` [Compound 1011] cannot be ordered by IC50: under 100 nM for the first, under 100 nM for the second.

System: HCV replicon (strain 1b) in Huh7 cells
Test: microbe, parasite or virus in culture
Assay type: cell-based
Conditions: Hepatitis C virus, Huh-7, 96 h; Huh7 cells expressing HCV replicon, 4 days; activity range class
From the text: This system enabled us to evaluate the effects of our HCV Protease compounds on HCV RNA replication. Briefly, using the HCV strain 1b sequence described in the Lohmann paper (Assession number: AJ238799), an HCV cDNA was generated encoding the 5′ internal ribosome entry site (IRES), the neomycin resistance gene, the EMCV (encephalomyocarditis virus)-IRES and the HCV nonstructural proteins, NS3-NS5B, and 3′ non-translated region (NTR). In vitro transcripts of the cDNA were transfected into the human hepatoma cell line, Huh7. […] Resulting cell lines were characterized for positive and negative strand RNA production and protein production over time.
Huh7 cells, constitutively expressing the HCV replicon, were grown in Dulbecco's Modified Eagle Media (DMEM) containing 10% Fetal calf serum (FCS) and 1 mg/ml G418 (Gibco-BRL). Cells were seeded the night before (1.5×10^4 cells/well) in 96-well tissue-culture sterile plates. Compound and no compound controls were prepared in DMEM containing 4% FCS, 1:100 Penicillin/Streptomysin, 1:100 L-glutamine and 5% DMSO in the dilution plate (0.5% DMSO final concentration in the assay). Compound/DMSO mixes were added to the cells and incubated for 4 days at 37° C. After 4 days, plates were rinsed thoroughly with Phosphate-Buffered Saline (PBS) (3 times 150 μl). The cells were lysed with 25 μl of a lysis assay reagent containing the FRET peptide (RET S1, as described for the in vitro enzyme assay). The lysis assay reagent was made from 5× cell Luciferase cell culture lysis reagent (Promega #E153A) diluted to 1× with distilled water, NaCl added to 150 mM final, the FRET peptide diluted to 10 μM final from a 2 mM stock in 100% DMSO. The plate was then placed into the Cytofluor 4000 instrument which had been set to 340 nm excitation/490 nm emission, automatic mode for 21 cycles and the plate read in a kinetic mode. EC50 determinations were carried out as described for the IC50 determinations.
The replicon construct described for our FRET assay was modified by replacing the resistance gene neomycin with the Blasticidin-resistance gene fused to the N-terminus of the humanized form of Renilla luciferase (restriction sites Asc1/Pme1 used for the subcloning). […] The luciferase reporter assay was set up by seeding huh7 cells the night before at a density of 2×10^6 cells per T75 flask. Cells were washed the next day with 7.5 ml Opti-MEM. Following the Invitrogen protocol, 40 μl DMRIE-C was vortexed with 5 ml Opti-MEM before adding 5 μg HCV reporter replicon RNA. The mix was added to the washed huh7 cells and left for 4 h at 37° C. In the mean time, serial compound dilutions and no compound controls were prepared in DMEM containing 10% FCS and 5% DMSO in the dilution plate (0.5% DMSO final concentration in the assay). Compound/DMSO mixes were added to each well of a 24-well plate. After 4 h, the transfection mix was aspirated, and cells washed with 5 ml of Opti-MEM before trypsinization. Trypsinized cells were resuspended in 10% DMEM and seeded at 2×10^4 cells/well in the 24-well plates containing compound or no compound controls. Plates were incubated for 4 days. After 4 days, media was removed and cells washed with PBS. 100 μl 1× Renilla Luciferase Lysis Buffer (Promega) was immediately added to each well and the plates either frozen at −80° C. for later analysis, or assayed after 15 min of lysis. Lysate (40 μl) from each well was transferred to a 96-well black plate (clear bottom) followed by 200 μl 1× Renilla Luciferase assay substrate. Plates were read immediately on a Packard TopCount NXT using a luminescence program.
The values were graphed and analyzed using XLFit to obtain the EC50 value.

First: C=C[C@@H]1C[C@]1(NC(=O)[C@@H]1C[C@@H](Oc2nccc3cc(OC)ccc23)CN1C(=O)[C@@H](NC(=O)OC(C)(C)C)C(C)(C)C)C(=O)NS(=O)(=O)c1cc(Cl)c(Cl)s1 [Compound 1001]
Second: C=C[C@@H]1C[C@]1(NC(=O)[C@@H]1C[C@@H](Oc2nccc3cc(OC)ccc23)CN1C(=O)[C@@H](NC(=O)OC(C)(C)C)C(C)(C)C)C(=O)NS(=O)(=O)c1cccs1 [Compound 1006]
The EC50 of the first is higher: 1000 to 10000 nM for the first, 100 to 1000 nM for the second.

`C=C[C@@H]1C[C@]1(NC(=O)[C@@H]1C[C@@H](Oc2nccc3cc(OC)ccc23)CN1C(=O)[C@@H](NC(=O)OC(C)(C)C)C(C)(C)C)C(=O)NS(=O)(=O)c1sc(C)nc1C` [Compound 1003] and `C=C[C@@H]1C[C@]1(NC(=O)[C@@H]1C[C@@H](Oc2nccc3cc(OC)ccc23)CN1C(=O)[C@@H](NC(=O)OC(C)(C)C)C(C)(C)C)C(=O)NS(=O)(=O)c1c(C)nn(C)c1Cl` [Compound 1004] fall in the same range of EC50: 100 to 1000 nM for the first, 100 to 1000 nM for the second.

First: C=C[C@@H]1C[C@]1(NC(=O)[C@@H]1C[C@@H](Oc2nccc3cc(OC)ccc23)CN1C(=O)[C@@H](NC(=O)OC(C)(C)C)C(C)(C)C)C(=O)NS(=O)(=O)c1cn(C)cn1 [Compound 1005]
Second: C=C[C@@H]1C[C@]1(NC(=O)[C@@H]1C[C@@H](Oc2nccc3cc(OC)ccc23)CN1C(=O)[C@@H](NC(=O)OC(C)(C)C)C(C)(C)C)C(=O)NS(=O)(=O)c1ccccc1 [Compound 1007]
The EC50 of the first is higher: 1000 to 10000 nM for the first, 100 to 1000 nM for the second.

`C=C[C@@H]1C[C@]1(NC(=O)[C@@H]1C[C@@H](Oc2nccc3cc(OC)ccc23)CN1C(=O)[C@@H](NC(=O)OC(C)(C)C)C(C)(C)C)C(=O)NS(=O)(=O)c1nnc(NC(C)=O)s1` [Compound 1011] showed an EC50 of 1000 to 10000 nM.
